Converted amounts (≈) assume the structure as drawn.
How the values were obtained:
S. aureus ATCC 13709 = assay: MIC, S. aureus ATCC 13709 (Alamar Blue broth microdilution); format: cell-based; conditions: Alamar Blue read after overnight incubation at 35° C.; for MIC Sa: S. aureus; for MIC: Staphylococcus aureus, ATCC13709, S. aureus
E. coli ATCC 25922 = assay: MIC, E. coli ATCC 25922; format: cell-based; conditions: Alamar Blue read after overnight incubation at 35° C.; for MIC Ec: E. coli; for MIC: Escherichia coli, ATCC25922, E. coli

Row | SMILES | MIC Sa (S. aureus ATCC 13709) | MIC Ec (E. coli ATCC 25922) | MIC (S. aureus ATCC 13709) | MIC (E. coli ATCC 25922)
1 | CNc1cc(F)cc2c1[nH]c1nc(Oc3ccc(C#N)nc3)nc(N3CC4CC(N)C4C3)c12 (centres unmarked) [4.332] | ≤0.5 µg/mL | ≤0.5 µg/mL | – | –
2 | CNc1cccc2c1[nH]c1nc(Oc3cnc(C)nc3)nc(N3CC[C@@H](N)C3)c12 [3.5] | – | – | 0.25 µg/mL (≈ 0.64 µM) | ≤ 0.5 µg/mL
3 | CNc1cccc2c1[nH]c1nc(Sc3cnc4cccnc4c3)nc(N3CC4CNCC4C3)c12 (centres unmarked) [1.55] | – | – | 1 µg/mL (≈ 2.13 µM) | 8 µg/mL (≈ 17.1 µM)
4 | CNc1cc(F)cc2c1[nH]c1nc(Oc3cnc(N)nc3)nc(N3CCC4CNC4C3)c12 (centres unmarked) [4.181] | – | – | ≤ 0.5 µg/mL | 8 µg/mL (≈ 18.4 µM)
5 | CNc1cc(F)cc2c1[nH]c1nc(Oc3cnc(C4CC4)nc3)nc(N3CC4CC4(CN)C3)c12 (centres unmarked) [4.246] | – | – | ≤ 0.5 µg/mL | ≤ 0.5 µg/mL
6 | CNc1cc(F)cc2c1[nH]c1nc(Oc3cnc(C4CC4)nc3)nc(N3CC4CCNC4C3)c12 (centres unmarked) [4.250] | ≤0.5 µg/mL | ≤0.5 µg/mL | – | –
7 | CNc1cc(F)cc2c1[nH]c1nc(Oc3cncc(-c4nnnn4C)c3)nc(N3CC4CNC(C4)C3)c12 (centres unmarked) [4.170] | – | – | 2 µg/mL (≈ 3.99 µM) | > 16 µg/mL
8 | CNc1cc(F)cc2c1[nH]c1nc(Oc3cnc(N4CCOCC4)nc3)nc(N3CCC4(CC4N)C3)c12 (centres unmarked) [4.214] | – | – | ≤ 0.5 µg/mL | 2 µg/mL (≈ 3.96 µM)
9 | CCc1cc(F)cc2c1[nH]c1nc(Oc3cnc(C)nc3)nc(N3CC(N)C4(CC4)C3)c12 (centres unmarked) [2.3] | – | – | 1 µg/mL (≈ 2.31 µM) | 16 µg/mL (≈ 36.9 µM)
10 | CNc1cccc2c1[nH]c1nc(Sc3cnc4ccc[n+]([O-])c4c3)nc(N3CCC4(CC4N)C3)c12 (centres unmarked) [1.38] | – | – | ≤ 0.5 µg/mL | 2 µg/mL (≈ 4.13 µM)
11 | COc1cccc2c1[nH]c1nc(Oc3cncc(C#N)c3)nc(N3CC4C(N)C4C3)c12 (centres unmarked) [2.15] | 1 µg/mL (≈ 2.42 µM) | >32 µg/mL | – | –
12 | CNc1cc(F)cc2c1[nH]c1nc(Oc3cncnc3)nc(N3CC4C(N)C4C3)c12 (centres unmarked) [4.001] | ≤0.5 µg/mL | ≤0.5 µg/mL | – | –
13 | CNc1cc(F)cc2c1[nH]c1nc(Oc3cncc(F)c3)nc(N3CC4CNC(C4)C3)c12 (centres unmarked) [4.058] | – | – | ≤ 0.5 µg/mL | ≤ 0.5 µg/mL
14 | CNc1cc(F)cc2c1[nH]c1nc(Oc3cnc(COC)nc3)nc(N3CC(N)C4(CC4)C3)c12 (centres unmarked) [4.343] | ≤0.5 µg/mL | ≤0.5 µg/mL | – | –
15 | CNc1cc(F)cc2c1[nH]c1nc(Oc3cnc4cccnc4c3)nc(N3CC4CCN[C@H]4C3)c12 (some centres unmarked) [4.044] | – | – | ≤ 0.5 µg/mL | ≤ 0.5 µg/mL
16 | CNc1cc(F)cc2c1[nH]c1nc(Oc3cnc(N)nc3)nc(N3CC4C(N)CC4(C)C3)c12 (mixture of isomers) [4.192] | ≤0.5 µg/mL | 4 µg/mL | – | –

— patent publication US10858360B2, “Tricyclic gyrase inhibitors” (priority 2011, dated 2020)
